Experimental data as given in article PMC6757289, “Design and Characterization of SGK3-PROTAC1, an Isoform Specific SGK3 Kinase PROTAC Degrader” (ACS Chemical Biology, 2019).

Columns and labels:
Assay in all cases: IC50 determination, biochemical kinase assay
S6K1 = S6K1 (Homo sapiens, UniProt P23443, T412E); settings: for IC50: not in the presence of VHL
Experimental: (§1) IC50 determination was performed at the MRC PPU International Centre for Protein Kinase Profiling, according to the protocol previously described[47],[48]

SGK3 = molecular target: T1, SGK3 (Homo sapiens, UniProt Q96BR1); settings: not in the presence of VHL
T1 sequence (Q96BR1 1-496): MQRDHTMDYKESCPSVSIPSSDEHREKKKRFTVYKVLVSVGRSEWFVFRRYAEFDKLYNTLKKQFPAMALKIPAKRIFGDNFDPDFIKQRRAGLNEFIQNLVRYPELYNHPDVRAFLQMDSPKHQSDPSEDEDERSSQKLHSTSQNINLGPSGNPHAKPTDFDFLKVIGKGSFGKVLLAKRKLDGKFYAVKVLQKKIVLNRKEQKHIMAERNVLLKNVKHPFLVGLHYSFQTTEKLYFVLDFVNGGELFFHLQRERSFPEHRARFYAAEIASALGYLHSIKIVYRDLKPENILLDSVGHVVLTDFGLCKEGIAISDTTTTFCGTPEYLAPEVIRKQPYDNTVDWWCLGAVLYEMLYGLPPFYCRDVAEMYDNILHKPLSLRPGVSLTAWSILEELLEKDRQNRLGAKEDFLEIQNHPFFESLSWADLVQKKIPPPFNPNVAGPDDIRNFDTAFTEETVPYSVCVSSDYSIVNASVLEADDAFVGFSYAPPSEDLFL
Experimental: as §1

SGK1 = molecular target: T2, SGK1 (Homo sapiens, UniProt O00141, S422D); settings: not in the presence of VHL
T2 sequence (O00141 60-431 S422D limits assumed): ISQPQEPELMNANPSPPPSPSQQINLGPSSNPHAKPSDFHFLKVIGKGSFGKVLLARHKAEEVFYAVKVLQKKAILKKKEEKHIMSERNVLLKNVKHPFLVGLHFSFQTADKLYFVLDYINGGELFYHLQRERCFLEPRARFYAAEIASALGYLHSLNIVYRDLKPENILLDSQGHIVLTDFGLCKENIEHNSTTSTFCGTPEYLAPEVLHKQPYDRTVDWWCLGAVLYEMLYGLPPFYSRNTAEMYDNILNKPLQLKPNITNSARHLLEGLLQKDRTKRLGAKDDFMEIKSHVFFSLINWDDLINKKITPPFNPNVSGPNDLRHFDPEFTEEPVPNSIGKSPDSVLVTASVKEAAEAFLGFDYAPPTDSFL

S6K1, sequence (P23443 1-421 T412E limits assumed): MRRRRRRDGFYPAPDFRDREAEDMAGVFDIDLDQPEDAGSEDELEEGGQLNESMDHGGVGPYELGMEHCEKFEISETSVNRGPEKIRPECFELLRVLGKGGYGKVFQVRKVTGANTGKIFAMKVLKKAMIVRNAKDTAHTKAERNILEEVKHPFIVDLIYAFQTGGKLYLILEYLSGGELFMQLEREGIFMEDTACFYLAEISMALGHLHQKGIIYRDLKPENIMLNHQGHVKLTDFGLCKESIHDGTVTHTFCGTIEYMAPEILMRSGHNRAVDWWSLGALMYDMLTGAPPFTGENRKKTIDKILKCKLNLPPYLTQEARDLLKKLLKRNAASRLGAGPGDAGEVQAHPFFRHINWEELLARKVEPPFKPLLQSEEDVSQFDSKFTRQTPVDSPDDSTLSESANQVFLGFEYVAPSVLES

Row | Compound | IC50 (S6K1) [nM] | IC50 (SGK3) [nM] | IC50 (SGK1) [nM] | increase of IC50 against S6K1 relative to DAT1 (S6K1; 0.16 μM to 1.8 μM)
1 | Cc1ccc(F)c(S(=O)(=O)Nc2ccc(-c3nc(OC[C@H]4CN(CCOCCOCCOCCOCC(=O)N[C@H](C(=O)N5C[C@H](O)C[C@H]5C(=O)NCc5ccc(-c6scnc6C)cc5)C(C)(C)C)CCO4)c4cn[nH]c4n3)cc2)c1 [DAT6] | > 10000 | > 10000 | > 10000 | 
2 | Cc1ccc(F)c(S(=O)(=O)Nc2ccc(-c3nc(OC[C@H]4CN(CCCCCCOCCOCCOCC(=O)N[C@H](C(=O)N5C[C@H](O)C[C@H]5C(=O)NCc5ccc(-c6scnc6C)cc5)C(C)(C)C)CCO4)c4cn[nH]c4n3)cc2)c1 [SGK3-PROTAC1] | 1800 |  | 220 | approximately 10 fold
3 | COc1ccc(Cl)c(S(=O)(=O)Nc2ccc(-c3nc(OC[C@H]4CNCCO4)c4c(C)n[nH]c4n3)cc2)c1 [290-R, reference compound] | 10 | 35 | 19 | 
4 | Cc1ccc(F)c(S(=O)(=O)Nc2ccc(-c3nc(OC[C@H]4CN(CCOCCOCC(=O)N[C@H](C(=O)N5C[C@H](O)C[C@H]5C(=O)NCc5ccc(-c6scnc6C)cc5)C(C)(C)C)CCO4)c4cn[nH]c4n3)cc2)c1 [DAT5] | > 10000 | > 10000 | > 10000 | 
5 | COc1ccc(Cl)c(S(=O)(=O)Nc2ccc(-c3nc(OC[C@H]4CN(CCCCCCOCCOCCOCCOCC(=O)N[C@H](C(=O)N5C[C@H](O)C[C@H]5C(=O)NCc5ccc(-c6scnc6C)cc5)C(C)(C)C)CCO4)c4c(C)n[nH]c4n3)cc2)c1 [DAT11] | 1800 | 730 | 1340 | 
6 | Cc1ccc(F)c(S(=O)(=O)Nc2ccc(-c3nc(OC[C@H]4CN(CCOCCOCCOCC(=O)N[C@H](C(=O)N5C[C@H](O)C[C@H]5C(=O)NCc5ccc(-c6scnc6C)cc5)C(C)(C)C)CCO4)c4cn[nH]c4n3)cc2)c1 [DAT1] | 160 | 440 | 1600 | 
7 | Cc1ccc(F)c(S(=O)(=O)Nc2ccc(-c3nc(OC[C@H]4CN(CCCCCCOCCOCCOCC(=O)N[C@H](C(=O)N5C[C@@H](O)C[C@H]5C(=O)NCc5ccc(-c6scnc6C)cc5)C(C)(C)C)CCO4)c4cn[nH]c4n3)cc2)c1 [cisSGK3-PROTAC1] | 1700 |  | 1400 | 
8 | Cc1ccc(F)c(S(=O)(=O)Nc2ccc(-c3nc(OC[C@H]4CNCCO4)c4cn[nH]c4n3)cc2)c1 [308-R, reference compound] | 1 | 5 |  | 
9 | Cc1ccc(F)c(S(=O)(=O)Nc2ccc(-c3nc(OC[C@H]4CN(CCCCCCOCCCCCCOCC(=O)N[C@H](C(=O)N5C[C@H](O)C[C@H]5C(=O)NCc5ccc(-c6scnc6C)cc5)C(C)(C)C)CCO4)c4cn[nH]c4n3)cc2)c1 [DAT10] | > 10000 | > 10000 | > 10000 | 
10 | Cc1ccc(F)c(S(=O)(=O)Nc2ccc(-c3nc(OC[C@H]4CN(CCOCCOCCOCCOCCOCC(=O)N[C@H](C(=O)N5C[C@H](O)C[C@H]5C(=O)NCc5ccc(-c6scnc6C)cc5)C(C)(C)C)CCO4)c4cn[nH]c4n3)cc2)c1 [DAT7] | > 10000 | > 10000 | > 10000 | 
